We go through 2 compounds from patent US8114872B2, “Triazolyl aminopyrimidine compounds” (Eli Lilly and Company, priority 2007, dated 2012).

Where two headings read alike, the source gives them in different places. Bounds are passed on as bounds.

In data set [1] the test system is HCT116, A549 and NCIH460 murine xenografts. The following applies: cited from earlier work.
For data set [2] the following is noted: in man, cited from earlier work.
Data set [3] has as its target T1, Plk1-Flag-His6 tag fusion enzyme (Human Plk1) (Homo sapiens, UniProt P53350).
T1 construct: made in house; host or cells: Sf9 insect cells (baculovirus, pFastBac vector); substrate in E. coli BL21 (pGEX-2T)
As to the kind of experiment: Plk1 Inhibition Assay (33P-ATP filter plate kinase reaction, GST-Cdc25C(1-206) substrate). The conditions noted are these: 5.0 μM ATP, RT 60 min; MSR 3.6; racemate; read-out: Plk1 IC50 (absolute IC50). In kind it is biochemical. An excerpt: Human Plk1 cDNA may be directly linked at one of its termini with a polynucleotide sequence expressing a His6 tag, such as the C-terminal FLAG-His6 tag, and inserted into an appropriate expression vector, such as a pFastBac™ vector (Invitrogen) and transfected into an appropriate system, such as baculovirus similar to what has been reported by Yue-Wei Qian, et al., Science, 282, 1701 (1998) for xPlk1. If a viral expression system is used, then the virus (e.g., baculovirus bearing a Plk1-Flag-His6 tag polynucleotide construct) is infected into a culture of a suitable host cell, such as Sf9 cells. […]
Plk1 kinase reactions contain Plk1-Flag-His6 tag fusion enzyme (0.2 ng/μL) in a buffer containing 50 mM HEPES, pH 7.3, 1.0 mM dithiothreitol, 5.0 μM ATP, 10 mM MgCl2, 0.01% TRITON® X-100, 0.4 μCi ^33P-ATP, and 0.06 μg/μL GST-Cdc25c (1-206) peptide. […] Wells are dried before addition of 40 μL of MicroScintTM20 (Packard) and then counted on a Wallac MICROBETA® Jet. The percentage inhibition values from the 10-point concentration response data are subsequently analyzed, for example, using ACTIVITY BASE™ software (IDBS), using a 4-parameter logistic equation. Absolute IC50 values are calculated from the resulting curve fit.

The test system of another data set is HeLa Cells. As to the kind of experiment: pHH3(S10), Mitotic Cells, and DNA Content Assays. In kind it is cell-based. The conditions noted are these: Homo sapiens, 23 hours exposure. The protocol: HeLa Cells are plated at 200 cells/well in 96 well […] Dickinson BIOCOAT™ plates, and are incubated in MEM (Minimum Essential Medium) with 10% FBS (Fetal Bovine Serum) in 37° C., 5% CO2 for 24 hours. Cells are treated by adding compound (in 0.25% DMSO) to the medium, dosing at 10 points across the range […] to 0.0098 μM. After 23 hours exposure to the compounds, cells are fixed, for example with the PREFER™ fixative for 30 min then are permeabilized with 0.1% TRITON® X100 in phosphate buffered saline (PBS) solution for 15 min. Cells are washed 3 times with PBS then digested with 50 μg/mL RNAse. Primary antibody, phosphohistone H3, is added at 1:500 in PBS with 1% bovine serum albumin (BSA) to the cells over night at 4° C. After 3 PBS washes, cells are incubated with Alexa488 labeled secondary antibody for 1 hour at RT. Again they are washed 3 times with PBS, and then 15 μM propidium iodide is added for 30 min to stain nuclei. Fluorescence Plates are scanned with ACUMEN EXPLORER™ [Laser-scanning fluorescence microplate cytometer (comprising of 488 nm argon ion laser excitation and multiple photomultiplier tube detection), manufactured by TTP LABTECH LTD] to measure anti-phosphohistone H3 Serine 10, DNA content and mitotic cells as measured by DNA condensation. Image analysis are based on cellular fluorescent signals for identifying cells in different subpopulations. pHH3(S10) positive cells are identified by mean intensity at 500-530 nm above the threshold. Total intensity at 655-705 nm from propidium iodide/DNA is used to identify individual cells (cells with DNA content from 2N to 4N) and subpopulations in cell cycle (2N cells, 4N cells). Peak intensity at 575-640 nm is used to identify DNA condensation that is used as the marker to identify mitotic cells among 4N cells. Assay outputs are percentage of each identified subpopulations, % pHH3, % 2N, % 4N, % mitotic and total cell number. The EC50 is determined by curve fitting to a four parameter logistic for each output using ACTIVITY BASE™.

The subject of the next data set is HCT116 cells. The data set can be described thus: Antiproliferative Assay (Alamar Blue). The following applies: Homo sapiens, HCT-116, e.g. 72 hours exposure, n=2, MSR 3.1, racemate, read-out: average IC50 (cell proliferation). In kind it is cell-based. As for the experimental part:
The effects of compounds on cell proliferation can be determined using cells and cell proliferation methods well-known in the art (Robert C. Squatrito et al., Gynecological Oncology, 58, 101-105, (1995)). For example, HCT116 cells, which may be obtained from the American Type Culture Collection, may be seeded at ˜2000 cells/well in 96-well plates and allowed to attach overnight in a humidified CO2 incubator at 37° C. Following the 20-24 hour incubation, half-log serially diluted compounds are added and the plates are returned to the incubator. After an appropriate length of exposure (e.g., 72 hours), cell proliferation is estimated using well-known methods. In one method, 10 μL of a tetrazolium salt, such as Alamar Blue™ is added to the cell plates. After an appropriate exposure to the dye, fluorescence (530 nm excitation, 580 nm emission) is determined.

T1 sequence (P53350 whole entry, the tested form may be a part): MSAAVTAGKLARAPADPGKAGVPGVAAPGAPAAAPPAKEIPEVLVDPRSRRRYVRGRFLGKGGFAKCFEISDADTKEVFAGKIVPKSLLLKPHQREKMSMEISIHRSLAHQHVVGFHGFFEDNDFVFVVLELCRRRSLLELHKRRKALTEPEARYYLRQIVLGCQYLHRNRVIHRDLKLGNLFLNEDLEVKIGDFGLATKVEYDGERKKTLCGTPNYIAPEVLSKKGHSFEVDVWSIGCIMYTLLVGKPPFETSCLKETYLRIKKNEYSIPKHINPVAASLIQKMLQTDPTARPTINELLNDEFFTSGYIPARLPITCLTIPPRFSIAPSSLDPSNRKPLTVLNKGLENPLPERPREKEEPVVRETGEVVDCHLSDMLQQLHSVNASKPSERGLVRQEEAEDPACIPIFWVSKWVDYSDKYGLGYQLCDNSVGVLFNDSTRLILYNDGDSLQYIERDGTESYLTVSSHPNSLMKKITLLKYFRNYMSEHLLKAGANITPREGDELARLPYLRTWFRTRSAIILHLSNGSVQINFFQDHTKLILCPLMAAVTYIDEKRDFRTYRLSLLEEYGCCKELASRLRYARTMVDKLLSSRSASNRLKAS

In the case of `CC[C@@H]1C(=O)N(C)c2cnc(Nc3ccc(C(=O)NC4CCN(C)CC4)cc3OC)nc2N1C1CCCC1` [BI-2536], in data set [1], the “activity in preclinical xenograft models” value is “demonstrated activity”. Further, the dose-limiting toxicity entry in data set [2] (phase II clinical trials) is reported as “dose limited by myelosupression”. Also, in data set [2], the “clearance (CL)” value was over 1000 mL/min.
With `CC(N)c1cnc(F)cc1-c1cccc2cc(-c3nc(NCCn4ccnn4)ncc3F)sc12` (racemic) [Example 41, N-(2-(1H-1,2,3-Triazol-1-yl)ethyl)-4-(7-(5-(1-aminoethyl)-2-fluoropyridin-4-yl)benzo[b]thiophen-2-yl)-5-fluoropyrimidin-2-amine], the figures for the IC50 (in data set [3]; in the data set with HCT116 cells) were 12 nM and 31 nM, respectively. Besides, the EC50 in the data set on HeLa Cells (MSR 2.4, racemate, read-out: DNA content EC50) was determined as 30 nM; in the data set with HeLa Cells (MSR 2.5, racemate, read-out: mitotic EC50) it was 23 nM; in the data set on HeLa Cells (MSR 2.6, racemate, read-out: pHH3(s10) EC50), 25 nM.

Broadly, the EC50 is the concentration at which the effect is half-maximal.
